Measured values as given in patent publication US12018093B2, “Hemiasterlin derivatives and antibody-drug conjugates including same” (priority 2017, dated 2024).
*1 amine or outer side, *2 acyl side, *3 side chain or, on linkers, in order; H or OH if unused. Where a SMILES comes first, the peptide text is derived from it. [ ]: non-standard residue; d: D form. NMeTrp(1,β,β-Me3) = CN[C@H](C(=O)O)C(C)(C)c1cn(C)c2ccccc12; X1 = C/C(=C\[C@H](C(C)C)N(C)[*:1])C(=O)[*:2]; Tle = CC(C)(C)[C@H](N)C(=O)O

What was measured:
Karpas-299 cells = test: Cellular toxicity test (1), CellTiter-Glo, Karpas-299; format: cell-based; conditions: Homo sapiens, 96 h, cultured 4 days, cell viability
Protocol: SU-DHL-1 cells (American Type Culture Collection, hereinafter, ATCC) and Karpas-299 cells (European Collection of Authenticated Cell Cultures, hereinafter, ECACC), which are human lymphoma cell lines, were cultured in RPMI 1640 (GIBCO) containing 10% fetal bovine serum (MP Biomedicals) (hereinafter, referred to as the “culture medium” in this test). SU-DHL-1 cells and Karpas-299 cells were prepared to be 2×10^6 cells/mL in the culture medium, and were added to a 96 well microplate for cell culturing in an amount of 50 μL for each well. Compounds of Examples or hemiasterlin 4 times diluted with the culture medium in 8 stages were added to the microplate in an amount of 50 μL for each well. To wells to which the test substance was not added, the culture medium was added in an amount of 50 μL for each well. These were cultured at 37 degree under 5% CO2 for 4 days. After culturing, the microplate was taken out from the incubator, and was left at rest at room temperature for 10 minutes. To each well, 50 μL of CellTiter-Glo Luminescent Cell Viability Assay (Promega) was added, and the resultant mixture was stirred. This mixture was incubated at a dark place for 20 minutes. Using a microplate luminometer, luminescence at each well was measured, thereby calculating the cell viability for each concentration of the test substance. From the cell viability, the IC50 value of the test substance was determined.
The IC50 value was calculated by the following formula: IC50(nM)=antilog(LOG10(a/b)×(e−d)/(c−d)+LOG10b) • a: concentration a of test substance • b: concentration b of test substance • c: cell viability upon adding test substance with concentration a • d: cell viability upon adding test substance with concentration b • e: intermediate value between maximum and minimum among cell viabilities upon • adding test substances with different concentrations (a and b are concentrations crossing the cell viability e, and a>b is indicated).
The cell viability at each concentration was calculated by the following formula: Cell Viability (%)=a′/b′×100 • a′: mean value of luminescence amount of wells to which test substance was added (n=6) • b′: mean value of luminescence amount of wells to which test substance was not added (n=6) • (n represents the number of evaluations performed per test substance concentration).

in vitro = conditions: PAMPA, pH 7.4
Protocol: By the parallel artificial membrane permeability assay (PAMPA), the membrane permeability of compounds of Examples was examined as follows: To the donor plate, System solution (pION inc.) and GIT Lipid-0 (pION inc.) were added in an amount of 200 μL and 4 μL for each well, respectively. To the acceptor plate, Acceptor Sink Buffer (pION inc.) was added in an amount of 200 μL. Both plates were superposed and incubated at 37° C. for 4 hours, and then, UVs in the solutions on the side of acceptor and on the side of donor were measured with an UV plate reader (190 to 500 nm). Compounds with poor UV absorption were measured by LC-MS. The permeability coefficient Pe (10^−6 cm/sec) of the drug was calculated by the following formula.

porcine tubulin = porcine tubulin (Sus scrofa, UniProt P02550+P02554); test: Activity for inhibiting microtubule polymerization using porcine tubulins (2), microtubule polymerization rate; conditions: 60 minutes after assay initiation; relative to wells without compound; lower = stronger inhibition
Sequence of porcine tubulin (P02554 whole entry): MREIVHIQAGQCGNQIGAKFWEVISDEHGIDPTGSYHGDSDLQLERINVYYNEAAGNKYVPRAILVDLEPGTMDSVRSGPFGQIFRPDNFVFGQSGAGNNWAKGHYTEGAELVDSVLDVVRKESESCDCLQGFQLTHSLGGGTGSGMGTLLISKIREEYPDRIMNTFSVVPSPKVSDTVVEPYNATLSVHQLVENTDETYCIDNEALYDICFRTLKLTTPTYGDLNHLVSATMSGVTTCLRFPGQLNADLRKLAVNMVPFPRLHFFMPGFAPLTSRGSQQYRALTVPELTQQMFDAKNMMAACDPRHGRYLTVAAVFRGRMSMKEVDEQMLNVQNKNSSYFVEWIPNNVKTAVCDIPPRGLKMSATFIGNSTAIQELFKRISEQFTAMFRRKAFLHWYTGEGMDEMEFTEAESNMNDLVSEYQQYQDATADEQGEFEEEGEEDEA
Sequence of porcine tubulin (P02550 whole entry): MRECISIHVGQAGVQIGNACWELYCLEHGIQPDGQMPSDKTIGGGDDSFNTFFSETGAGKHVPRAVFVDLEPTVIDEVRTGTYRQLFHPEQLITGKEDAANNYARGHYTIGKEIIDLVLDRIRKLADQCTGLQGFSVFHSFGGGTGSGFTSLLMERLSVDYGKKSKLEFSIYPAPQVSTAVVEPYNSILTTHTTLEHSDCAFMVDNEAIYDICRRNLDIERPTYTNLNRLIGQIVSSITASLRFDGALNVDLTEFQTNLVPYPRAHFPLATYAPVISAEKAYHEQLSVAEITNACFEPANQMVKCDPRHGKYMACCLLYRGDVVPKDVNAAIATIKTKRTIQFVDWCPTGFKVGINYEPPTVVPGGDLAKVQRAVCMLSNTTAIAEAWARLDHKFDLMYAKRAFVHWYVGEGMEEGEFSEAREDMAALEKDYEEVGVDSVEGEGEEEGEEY

SMILES | IC50 (Karpas-299 cells) [nM] | Papp at 4 h (in vitro) [×10⁻⁶ cm/s] | Microtubule polymerization rate (%) (porcine tubulin) | Papp (in vitro) [×10⁻⁶ cm/s]
CN[C@H](C(=O)N[C@H](C(=O)N(C)[C@H](/C=C(\C)C(=O)N[C@@H](CC(=O)O)C(=O)N[C@@H](CC(=O)O)C(=O)N[C@@H](CC(=O)O)C(=O)N[C@@H](CC(=O)O)C(=O)N[C@@H](CC(=O)O)C(=O)O)C(C)C)C(C)(C)C)C(C)(C)c1cn(C)c2ccccc12 [Example 3, N-{(2E,4S)-2,5-Dimethyl-4-[methyl(N,β,β,1-tetramethyl-L-tryptophyl-3-methyl-L-valyl)amino]hex-2-enoyl}-L-α-aspartyl-L-t-aspartyl-L-α-aspartyl-L-α-aspartyl-L-α-aspartic acid] (H-[NMeTrp(1,β,β-Me3)][Tle][X1]DDDDD-OH) | > 5000 | < 0.1 | 3 | –
CN[C@H](C(=O)N[C@H](C(=O)N(C)[C@H](/C=C(\C)C(=O)N[C@H](CCC(=O)O)C(=O)O)C(C)C)C(C)(C)C)C(C)(C)c1cc(C)cc(C)c1 [Example 62] | – | – | 6 | –
CN[C@H](C(=O)N[C@H](C(=O)N(C)[C@H](/C=C(\C)C(=O)N[C@H](CCC(=O)O)C(=O)O)C(C)C)C(C)(C)C)C(C)(C)c1ccc(C(=O)OC(C)(C)C)cc1 [Example 66] | > 1000 | – | 9 | < 0.1
CN[C@H](C(=O)N[C@H](C(=O)N(C)[C@H](/C=C(\C)C(=O)N[C@H](CCC(=O)O)C(=O)O)C(C)C)C(C)(C)C)C(C)(C)c1ccc(C(=O)O)cc1 [Example 71] | 701 | – | 4 | < 0.1
CN[C@H](C(=O)N[C@H](C(=O)N(C)[C@H](/C=C(\C)C(=O)N[C@H](CCC(=O)O)C(=O)O)C(C)C)C(C)(C)C)C(C)(C)c1cccc(C#N)c1 [Example 60] | 406 | – | 6 | < 0.1
CN[C@H](C(=O)N[C@H](C(=O)N(C)[C@H](/C=C(\C)C(=O)N[C@@H](CS(=O)(=O)O)C(=O)O)C(C)C)C(C)(C)C)C(C)(C)c1ccccc1 [Example 53] | 122 | – | – | < 0.1
CN[C@H](C(=O)N[C@H](C(=O)N(C)[C@H](/C=C(\C)C(=O)N[C@@H](CCC(=O)OC)C(=O)OC)C(C)C)C(C)(C)C)C(C)(C)c1cn(C)c2ccccc12 [Example 72] | 106 | – | 1 | < 0.1
CN[C@H](C(=O)N[C@H](C(=O)N(C)[C@H](/C=C(\C)C(=O)N[C@H](CCC(=O)O)C(=O)O)C(C)C)C(C)(C)C)C(C)(C)c1cccc(-c2ccccc2)c1 [Example 67] | 149 | – | 42 | < 0.1
CNC(C(=O)N[C@H](C(=O)N(C)[C@H](/C=C(\C)C(=O)N[C@H](CCC(=O)O)C(=O)O)C(C)C)C(C)(C)C)C(C)(C)c1ccc(C(=O)O)cc1 (stereo partly shown) [Example 70] | 721 | – | – | 0.9
CN[C@H](C(=O)N[C@H](C(=O)N(C)[C@H](/C=C(\C)C(=O)N[C@H](CCC(=O)O)C(=O)O)C(C)C)C(C)(C)C)C(C)(C)c1ccc2ccccc2c1 [Example 64] | 30 | – | – | –
CN[C@@H](C(=O)N[C@H](C(=O)N(C)[C@H](/C=C(\C)C(=O)N[C@H](CCC(=O)O)C(=O)O)C(C)C)C(C)(C)C)C(C)(C)c1cccc(Br)c1 [Example 65] | > 1000 | – | – | < 0.1
C/C(=C\[C@H](C(C)C)N(C)C(=O)[C@@H](NC(=O)[C@@H](N)C(C)(C)c1cn(C)c2ccccc12)C(C)(C)C)C(=O)N[C@H](CCC(=O)O)C(=O)O [Example 2, β,β,1-Trimethyl-L-tryptophyl-N-[(3S,4E)-6-{[(1R)-1,3-dicarboxypropyl]amino}-2,5-dimethyl-6-oxohex-4-en-3-yl]-N,3-dimethyl-L-valinamide] | > 125 | – | 4 | 0.2
CNC(C(=O)N[C@H](C(=O)N(C)[C@H](/C=C(\C)C(=O)N[C@H](CCC(=O)O)C(=O)O)C(C)C)C(C)(C)C)C(C)(C)c1ccc(O)cc1 (stereo partly shown) [Example 59] | 412 | – | 2 | 0.5
CN[C@H](C(=O)N[C@H](C(=O)N(C)[C@H](/C=C(\C)C(=O)N[C@H](CCC(=O)O)C(=O)O)C(C)C)C(C)(C)C)C(C)(C)C1CCCCC1 [Example 58] | > 1000 | – | 5 | 9
C/C(=C\[C@H](C(C)C)N(C)C(=O)[C@@H](NC(=O)[C@H]1CCCCN1C(C)C)C(C)(C)C)C(=O)N[C@H](CCC(=O)O)C(=O)O [Example 57] | > 1000 | – | 5 | < 0.1
CN[C@H](C(=O)N[C@H](C(=O)N(C)[C@H](/C=C(\C)C(=O)N[C@H](CCC(=O)O)C(=O)O)C(C)C)C(C)(C)C)C(C)(C)c1cccc(Br)c1 [Example 69] | 97.1 | – | 5 | < 0.1
CN[C@H](C(=O)N[C@H](C(=O)N(C)[C@H](/C=C(\C)C(=O)N[C@H](CCC(=O)O)C(=O)O)C(C)C)C(C)(C)C)C(C)(C)c1cccc(F)c1 [Example 56] | 275 | – | 7 | 0.7
CN[C@H](C(=O)N[C@H](C(=O)N(C)[C@H](/C=C(\C)C(=O)N[C@H](CCCCN)C(=O)O)C(C)C)C(C)(C)C)C(C)(C)c1cn(C)c2ccccc12 [Example 5] | 87.2 | – | – | –
CN[C@H](C(=O)N[C@H](C(=O)N(C)[C@H](/C=C(\C)C(=O)N[C@H](CCC(=O)O)C(=O)O)C(C)C)C(C)(C)C)C(C)(C)c1cccc(C)c1 [Example 68] | 26.5 | – | 4 | < 0.1
CN[C@H](C(=O)N[C@H](C(=O)N(C)[C@H](/C=C(\C)C(=O)N[C@@H](COP(=O)(O)O)C(=O)O)C(C)C)C(C)(C)C)C(C)(C)c1ccccc1 [Example 54] | 22.2 | – | – | –
CN[C@H](C(=O)N[C@H](C(=O)N(C)[C@H](/C=C(\C)C(=O)N[C@H](CCC(=O)N[C@@H](CCCCN)C(=O)O)C(=O)O)C(C)C)C(C)(C)C)C(C)(C)c1cn(C)c2ccc(F)cc12 [Example 52] | 230 | – | – | < 0.1
CN[C@H](C(=O)N[C@H](C(=O)N(C)[C@H](/C=C(\C)C(=O)N[C@@H](CCC(=O)O)C(=O)O)C(C)C)C(C)(C)C)C(C)(C)c1cn(C)c2ccccc12 [Example 6] | 34 | – | – | < 0.1
CCOC(=O)[C@H](CCC(=O)O)NC(=O)/C(C)=C/[C@H](C(C)C)N(C)C(=O)[C@@H](NC(=O)[C@@H](NC)C(C)(C)c1cn(C)c2ccccc12)C(C)(C)C [Example 13] | – | – | 21 | –
CN[C@H](C(=O)N[C@H](C(=O)N(C)[C@H](/C=C(\C)C(=O)N[C@@H](CCC(=O)N[C@@H](CCC(=O)O)C(=O)O)C(=O)N[C@@H](CCC(=O)O)C(=O)O)C(C)C)C(C)(C)C)C(C)(C)c1cn(C)c2ccccc12 [Example 47] (H-[NMeTrp(1,β,β-Me3)][Tle][X1]E(Glu)E-OH) | 773 | – | 3 | < 0.1
CCOC(=O)CC[C@@H](NC(=O)/C(C)=C/[C@H](C(C)C)N(C)C(=O)[C@@H](NC(=O)[C@@H](N)C(C)(C)c1cn(C)c2ccccc12)C(C)(C)C)C(=O)OCC [Example 1, (2R)-2-{[(2E,4S)-4-{[(2S)-2-{[(2S)-2-Amino-3-methyl-3-(1-methyl-1H-indol-3-yl)butanoyl]amino}-3,3-dimethylbutanoyl](methyl)amino}-2,5-dimethylhex-2-enoyl]amino}pentane diethyl diester] | 93.9 | – | – | –
